# Source: patent publication EP4796130A1, “ANTI-TISSUE FACTOR ANTIBODY-DRUG CONJUGATE COMPRISING CAMPTOTHECIN DERIVATIVE” (Celltrion, Inc., priority 2023, dated 2025)
# “And” between values parts separate entries of the source, which are not always exact repeats. Equal values may be shown once.
# Key:
# [1] = tested on: KYSE520 (human esophageal cancer xenograft model); assay: In vivo antitumor efficacy, KYSE520 xenograft model; design: species or system BALB/c nude mice; conditions: for Tumor Volume / Tumor Weights on Day 35: mean ± SEM; for T/Cweight / TGI: day 35 vs control group G1; for T/C: tumor volume on day 35 vs control group G1
# [2] = tested on: MCF-7 (a breast cancer cell line); assay type: cell-based; conditions: 6 days incubation
# [3] = tested on: HPAFII (human pancreatic cancer xenograft model); assay: In vivo antitumor efficacy, HPAFII xenograft model; design: species or system CB17 SCID mice; conditions: for Tumor Volume / Tumor Weights on Day 28: mean ± SEM; for T/Cweight / TGI: day 28 vs control group G1; for T/C: tumor volume on day 28 vs control group G1
# [4] = one mouse in G5 (3 mg/kg i.v. QW x 3 weeks); day 18 after start of treatment; autopsied, no abnormalities found
# Source text: Animal body weights were regularly monitored as an indirect measure of toxicity. […]
substance,measurement,setting,value
Tivdak: ADC in which MMAE is conjugated to Tisotumab; purchased from Jupiter Research Service LLC; DAR 4,Tumor Volume,"[1]; 1 mg/kg i.v. QW x 3 weeks, day 0",175 ± 8 mm^3
same,Tumor Volume,"[1]; 1 mg/kg i.v. QW x 3 weeks, day 4",279 ± 20 mm^3
same,Tumor Volume,"[1]; 1 mg/kg i.v. QW x 3 weeks, day 7",360 ± 29 mm^3
same,Tumor Volume,"[1]; 1 mg/kg i.v. QW x 3 weeks, day 11",489 ± 37 mm^3
same,Tumor Volume,"[1]; 1 mg/kg i.v. QW x 3 weeks, day 14",672 ± 51 mm^3
same,Tumor Volume,"[1]; 1 mg/kg i.v. QW x 3 weeks, day 18",771 ± 64 mm^3
same,Tumor Volume,"[1]; 1 mg/kg i.v. QW x 3 weeks, day 21",865 ± 75 mm^3
same,Tumor Volume,"[1]; 1 mg/kg i.v. QW x 3 weeks, day 25","1,168 ± 101 mm^3"
same,Tumor Volume,"[1]; 1 mg/kg i.v. QW x 3 weeks, day 28","1,497 ± 121 mm^3"
same,Tumor Volume,"[1]; 1 mg/kg i.v. QW x 3 weeks, day 32","1,634 ± 126 mm^3"
same,Tumor Volume,"[1]; 1 mg/kg i.v. QW x 3 weeks, day 35","1,893 ± 166 mm^3"
same,T/Cweight,[1]; 1 mg/kg i.v. QW x 3 weeks,86.67%
same,TGI,[1]; 1 mg/kg i.v. QW x 3 weeks,13.03%
same,Tumor Weights on Day 35,[1]; 1 mg/kg i.v. QW x 3 weeks,1.869 ± 0.138 g
same,T/C,[1]; 1 mg/kg i.v. QW x 3 weeks,88.03%
same,Tumor Volume,"[1]; 3 mg/kg i.v. QW x 3 weeks, day 0",175 ± 8 mm^3
same,Tumor Volume,"[1]; 3 mg/kg i.v. QW x 3 weeks, day 4",241 ± 23 mm^3
same,Tumor Volume,"[1]; 3 mg/kg i.v. QW x 3 weeks, day 7",279 ± 24 mm^3
same,Tumor Volume,"[1]; 3 mg/kg i.v. QW x 3 weeks, day 11",281 ± 31 mm^3
same,Tumor Volume,"[1]; 3 mg/kg i.v. QW x 3 weeks, day 14",270 ± 31 mm^3
same,Tumor Volume,"[1]; 3 mg/kg i.v. QW x 3 weeks, day 18",174 ± 17 mm^3
same,Tumor Volume,"[1]; 3 mg/kg i.v. QW x 3 weeks, day 21",154 ± 17 (n = 9)^c mm^3
same,Tumor Volume,"[1]; 3 mg/kg i.v. QW x 3 weeks, day 25",142 ± 15(n = 9) mm^3
same,Tumor Volume,"[1]; 3 mg/kg i.v. QW x 3 weeks, day 28",129 ± 16 (n = 9) mm^3
same,Tumor Volume,"[1]; 3 mg/kg i.v. QW x 3 weeks, day 32",115 ± 16(n = 9) mm^3
same,Tumor Volume,"[1]; 3 mg/kg i.v. QW x 3 weeks, day 35",99 mm^3 and 99 ± 14 (n = 9) mm^3 and 99 ± 14 mm^3
same,T/Cweight,[1]; 3 mg/kg i.v. QW x 3 weeks,4.12%
same,TGI,[1]; 3 mg/kg i.v. QW x 3 weeks,103.89%
same,Tumor Weights on Day 35,[1]; 3 mg/kg i.v. QW x 3 weeks,0.089 ± 0.013 g
same,T/C,[1]; 3 mg/kg i.v. QW x 3 weeks,4.58%
same,Tumor Volume,"[1]; 10 mg/kg i.v. QW x 3 weeks, day 0",175 ± 8 mm^3
same,Tumor Volume,"[1]; 10 mg/kg i.v. QW x 3 weeks, day 4",243 ± 22 mm^3
same,Tumor Volume,"[1]; 10 mg/kg i.v. QW x 3 weeks, day 7",259 ± 24 mm^3
same,Tumor Volume,"[1]; 10 mg/kg i.v. QW x 3 weeks, day 11",234 ± 23 mm^3
same,Tumor Volume,"[1]; 10 mg/kg i.v. QW x 3 weeks, day 14",196 ± 16 mm^3
same,Tumor Volume,"[1]; 10 mg/kg i.v. QW x 3 weeks, day 18",122 ± 11 mm^3
same,Tumor Volume,"[1]; 10 mg/kg i.v. QW x 3 weeks, day 21",101 ± 7 mm^3
same,Tumor Volume,"[1]; 10 mg/kg i.v. QW x 3 weeks, day 25",88 ± 7 mm^3
same,Tumor Volume,"[1]; 10 mg/kg i.v. QW x 3 weeks, day 28",69 ± 5 mm^3
same,Tumor Volume,"[1]; 10 mg/kg i.v. QW x 3 weeks, day 32",58 ± 5 mm^3
same,Tumor Volume,"[1]; 10 mg/kg i.v. QW x 3 weeks, day 35",45 mm^3 and 45 ± 6 mm^3
same,T/Cweight,[1]; 10 mg/kg i.v. QW x 3 weeks,1.93%
same,TGI,[1]; 10 mg/kg i.v. QW x 3 weeks,106.62%
same,Tumor Weights on Day 35,[1]; 10 mg/kg i.v. QW x 3 weeks,0.042 ± 0.004 g
same,T/C,[1]; 10 mg/kg i.v. QW x 3 weeks,2.08%
same,IC50,[2],442 nM
same,Tumor Volume,"[3]; 0.3 mg/kg i.v. QW × 3, day 0",235 ± 17 mm^3
same,Tumor Volume,"[3]; 0.3 mg/kg i.v. QW × 3, day 4",313 ± 34 mm^3
same,Tumor Volume,"[3]; 0.3 mg/kg i.v. QW × 3, day 7",361 ± 49 mm^3
same,Tumor Volume,"[3]; 0.3 mg/kg i.v. QW × 3, day 11",476 ± 64 mm^3
same,Tumor Volume,"[3]; 0.3 mg/kg i.v. QW × 3, day 14",576 ± 69 mm^3
same,Tumor Volume,"[3]; 0.3 mg/kg i.v. QW × 3, day 18",737 ± 91 mm^3
same,Tumor Volume,"[3]; 0.3 mg/kg i.v. QW × 3, day 21",934 ± 113 mm^3
same,Tumor Volume,"[3]; 0.3 mg/kg i.v. QW × 3, day 25","1,219 ± 141 mm^3"
same,Tumor Volume,"[3]; 0.3 mg/kg i.v. QW × 3, day 28","1,607 ± 144 mm^3"
same,T/Cweight,[3]; 0.3 mg/kg i.v. QW × 3,68.36%
same,TGI,[3]; 0.3 mg/kg i.v. QW × 3,35.24%
same,Tumor Weights on Day 28,[3]; 0.3 mg/kg i.v. QW × 3,1.461 ± 0.146 g
same,T/C,[3]; 0.3 mg/kg i.v. QW × 3,68.29%
same,Tumor Volume,"[3]; 1 mg/kg i.v. QW × 1, day 0",235 ± 17 mm^3
same,Tumor Volume,"[3]; 1 mg/kg i.v. QW × 1, day 4",217 ± 16 mm^3
same,Tumor Volume,"[3]; 1 mg/kg i.v. QW × 1, day 7",141 ± 16 mm^3
same,Tumor Volume,"[3]; 1 mg/kg i.v. QW × 1, day 11",87 ± 9 mm^3
same,Tumor Volume,"[3]; 1 mg/kg i.v. QW × 1, day 14",103 ± 14 mm^3
same,Tumor Volume,"[3]; 1 mg/kg i.v. QW × 1, day 18",161 ± 31 mm^3
same,Tumor Volume,"[3]; 1 mg/kg i.v. QW × 1, day 21",213 ± 34 mm^3
same,Tumor Volume,"[3]; 1 mg/kg i.v. QW × 1, day 25",344 ± 49 mm^3
same,Tumor Volume,"[3]; 1 mg/kg i.v. QW × 1, day 28",486 mm^3 and 486 ± 73 mm^3
same,T/Cweight,[3]; 1 mg/kg i.v. QW × 1,21.23%
same,TGI,[3]; 1 mg/kg i.v. QW × 1,88.15%
same,Tumor Weights on Day 28,[3]; 1 mg/kg i.v. QW × 1,0.454 ± 0.088 g
same,T/C,[3]; 1 mg/kg i.v. QW × 1,20.67%
same,Tumor Volume,"[3]; 1 mg/kg i.v. QW × 3, day 0",235 ± 17 mm^3
same,Tumor Volume,"[3]; 1 mg/kg i.v. QW × 3, day 4",190 ± 12 mm^3
same,Tumor Volume,"[3]; 1 mg/kg i.v. QW × 3, day 7",124 ± 11 mm^3
same,Tumor Volume,"[3]; 1 mg/kg i.v. QW × 3, day 11",85 ± 9 mm^3
same,Tumor Volume,"[3]; 1 mg/kg i.v. QW × 3, day 14",70 ± 8 mm^3
same,Tumor Volume,"[3]; 1 mg/kg i.v. QW × 3, day 18",54 ± 6 mm^3
same,Tumor Volume,"[3]; 1 mg/kg i.v. QW × 3, day 21",40 ± 4 mm^3
same,Tumor Volume,"[3]; 1 mg/kg i.v. QW × 3, day 25",33 ± 4 mm^3
same,Tumor Volume,"[3]; 1 mg/kg i.v. QW × 3, day 28",26 mm^3 and 26 ± 3 mm^3
same,T/Cweight,[3]; 1 mg/kg i.v. QW × 3,1.03%
same,TGI,[3]; 1 mg/kg i.v. QW × 3,109.91%
same,Tumor Weights on Day 28,[3]; 1 mg/kg i.v. QW × 3,0.022 ± 0.003 g
same,T/C,[3]; 1 mg/kg i.v. QW × 3,1.09%
same,Tumor Volume,"[3]; 3 mg/kg i.v. QW × 1, day 0",235 ± 17 mm^3
same,Tumor Volume,"[3]; 3 mg/kg i.v. QW × 1, day 4",216 ± 19 mm^3
same,Tumor Volume,"[3]; 3 mg/kg i.v. QW × 1, day 7",128 ± 10 mm^3
same,Tumor Volume,"[3]; 3 mg/kg i.v. QW × 1, day 11",69 ± 8 mm^3
same,Tumor Volume,"[3]; 3 mg/kg i.v. QW × 1, day 14",56 ± 4 mm^3
same,Tumor Volume,"[3]; 3 mg/kg i.v. QW × 1, day 18",39 ± 3 mm^3
same,Tumor Volume,"[3]; 3 mg/kg i.v. QW × 1, day 21",30 ± 2 mm^3
same,Tumor Volume,"[3]; 3 mg/kg i.v. QW × 1, day 25",26 ± 2 mm^3
same,Tumor Volume,"[3]; 3 mg/kg i.v. QW × 1, day 28",19 mm^3 and 19 ± 1 mm^3
same,T/Cweight,[3]; 3 mg/kg i.v. QW × 1,0.54%
same,TGI,[3]; 3 mg/kg i.v. QW × 1,110.22%
same,Tumor Weights on Day 28,[3]; 3 mg/kg i.v. QW × 1,0.012 ± 0.001 g
same,T/C,[3]; 3 mg/kg i.v. QW × 1,0.80%
same,body weight loss,[4],more than 20%
